Among the data in patent EP1795539B1, “Cell penetrating peptides for intracellular delivery of molecules” (Centre National de la Recherche Scientifique, priority 2005, dated 2007) are EC50 and tumor growth values, retold here.

For one assay, the system named is HS-68 and Hela cells. Nature of the assay: Toxicity of CADY variants, MTT cell viability assay (Table 1). It counts as cell-based. The method, then:
The toxicity of CADY peptides has been investigated on different cell lines. Cells were incubated in the presence of increasing concentrations of CADY (from 0.1 µM to 1 mM) for 12 hrs and cell viability was estimated using MTT assay.
For orientation: Tetrazolium assays rely on reduction of a dye to a coloured formazan, in cell work by metabolically active cells.

In assay [1] the test system is 5PC3 or Human H1299 adenocarcinoma cells. Nature of the assay: Intravenous injection of carrier/anti-cyclin B1 siRNA complexes, tumor growth. It counts as in vivo, NCR nude mice. The following applies: one intravenous injection, siRNA 10 µg, ratio 1:20.
Another assay has as its system different cell lines. In kind it is cell-based. Particulars: 12 h. The procedure: • Figure 1 : Schematic representation of CADY cellular uptake mechanism. • Figure 2 : Structure of CADY in the interaction with the membrane. • (A) modelisation • (B) CD experiments - Far UV CD spectra were recorded on a JASCO J-810 spectro-polarimeter (JASCO Corporation, Tokyo, Japan) using a quartz cuvette with a path length of 1 mm. Spectra were corrected from the baseline buffer spectrum and smoothed with the JASCO software. Peptides were dissolved to a fixed concentration of 50 µM in water or in PBS. CD spectra were collected at 23°C and each spectrum represents the average of 4 scans. […] Binding of cargoes to CADY was monitored by steady state fluorescence spectroscopy. The intrinsic fluorescence associated to the Trp residues of CADY was used as sensitive probe. The fluorescence of CADY is centered at 340 nm upon excitation at 290 nm. […] The knockdown of the GAPDH at the protein level was quantified 48 hrs after transfection by Western blot analysis using polyclonal antibody (Ref. ABCAM GAPDH antibody - ab9385 rabbit polyclonal). […] The size of the particle was determined by light scattering and the knock down of GAPDH protein was quantified by Western blot analysis. • (B) role of the endosomal pathway on the efficiency of CADY-mediated siRNA delivery. […]

Read-outs that look alike come from different tables or passages of the source. Peptide text beside a SMILES is read from it.

What is called EC50 is the concentration giving half of the maximal effect. `CC(C)CCC[C@@H](C)[C@H]1CC[C@H]2[C@@H]3CC=C4C[C@@H](OC(=O)NCC(=O)N[C@@H](CC(C)C)C(=O)N[C@@H](Cc5c[nH]c6ccccc56)C(=O)N[C@@H](CCCNC(=N)N)C(=O)N[C@@H](C)C(=O)N[C@@H](CC(C)C)C(=O)N[C@@H](Cc5c[nH]c6ccccc56)C(=O)N[C@@H](CCCNC(=N)N)C(=O)N[C@@H](CC(C)C)C(=O)N[C@@H](CC(C)C)C(=O)N[C@@H](CCCNC(=N)N)C(=O)N[C@@H](CO)C(=O)N[C@@H](CC(C)C)C(=O)N[C@@H](Cc5c[nH]c6ccccc56)C(=O)N[C@@H](CCCNC(=N)N)C(=O)N[C@@H](CC(C)C)C(=O)N[C@@H](CC(C)C)C(=O)N[C@@H](Cc5c[nH]c6ccccc56)C(=O)N[C@@H](CCCCN)C(=O)N[C@@H](C)C(=O)NCCS)CC[C@]4(C)[C@H]3CC[C@]12C` [CADY-S] (HELM PEPTIDE1{[CC(C)CCC[C@@H](C)[C@H]1CC[C@H]2[C@@H]3CC=C4C[C@@H](OC(=O)[*:2])CC[C@]4(C)[C@H]3CC[C@]12C].G.L.W.R.A.L.W.R.L.L.R.S.L.W.R.L.L.W.K.A.[SCCN[*:1]]}$$$$V2.0; N-terminus assumed): a half-maximal response with HS-68 and Hela cells (12 h) (EC50) required 200 µM. In addition, the tumor growth entry in assay [1] is given as “fully abolish the tumor growth”.
`CC(=O)NCC(=O)N[C@@H](CC(C)C)C(=O)N[C@@H](Cc1c[nH]c2ccccc12)C(=O)N[C@@H](CCCNC(=N)N)C(=O)N[C@@H](C)C(=O)N[C@@H](CC(C)C)C(=O)N[C@@H](Cc1c[nH]c2ccccc12)C(=O)N[C@@H](CCCNC(=N)N)C(=O)N[C@@H](CC(C)C)C(=O)N[C@@H](CC(C)C)C(=O)N[C@@H](CCCNC(=N)N)C(=O)N[C@@H](CO)C(=O)N[C@@H](CC(C)C)C(=O)N[C@@H](Cc1c[nH]c2ccccc12)C(=O)N[C@@H](CCCNC(=N)N)C(=O)N[C@@H](CC(C)C)C(=O)N[C@@H](CC(C)C)C(=O)N[C@@H](Cc1c[nH]c2ccccc12)C(=O)N[C@@H](CCCCN)C(=O)N[C@@H](C)C(=O)NCCS` [CADY-1] (HELM PEPTIDE1{[ac].G.L.W.R.A.L.W.R.L.L.R.S.L.W.R.L.L.W.K.A.[SCCN[*:1]]}$$$$V2.0): the EC50 is 500 µM in the assay on different cell lines; 400 µM in the assay with HS-68 and Hela cells (free peptide, MTT, read-out: free EC50).
